# Results reported in ChEMBL document CHEMBL1201862, “PubChem BioAssay data set” (2004).
# Calls of active or inactive are those of the source.
# Experiments:
# [1] = biological target: G2/mitotic-specific cyclin-B1 (Homo sapiens, UniProt P14635); test: Counterscreen assay for inhibitors of Wee1 degradation: dose response cell-based assay to identify inhibitors of cyclin B degradation. [Related pubchem assays: 1410, 1321 ]; assay type: functional
# Wee1-like protein kinase = Wee1-like protein kinase (Homo sapiens, UniProt P30291); test: Dose Response Cell-based Assay for Inhibitors of Wee1 Degradation. [Related pubchem assays: 1410, 1321 ]; assay type: functional
# [2] = biological target: T1, Heat shock factor protein 1 (Mus musculus, UniProt P38532); test: HSF1 potentiators in luciferase reporter cells, confirmation, cell-based, NIH3T3, luminescence, dose retest (AID 435004); assay type: functional;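 note: stress induced by proteasome inhibitor MG132 added 30 min after compound; luciferase reporter driven by HSF1 response element in NIH3T3 cells; actives raise luminescence as potentiators of the MG132 stress response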
# T1 sequence (P38532 whole entry): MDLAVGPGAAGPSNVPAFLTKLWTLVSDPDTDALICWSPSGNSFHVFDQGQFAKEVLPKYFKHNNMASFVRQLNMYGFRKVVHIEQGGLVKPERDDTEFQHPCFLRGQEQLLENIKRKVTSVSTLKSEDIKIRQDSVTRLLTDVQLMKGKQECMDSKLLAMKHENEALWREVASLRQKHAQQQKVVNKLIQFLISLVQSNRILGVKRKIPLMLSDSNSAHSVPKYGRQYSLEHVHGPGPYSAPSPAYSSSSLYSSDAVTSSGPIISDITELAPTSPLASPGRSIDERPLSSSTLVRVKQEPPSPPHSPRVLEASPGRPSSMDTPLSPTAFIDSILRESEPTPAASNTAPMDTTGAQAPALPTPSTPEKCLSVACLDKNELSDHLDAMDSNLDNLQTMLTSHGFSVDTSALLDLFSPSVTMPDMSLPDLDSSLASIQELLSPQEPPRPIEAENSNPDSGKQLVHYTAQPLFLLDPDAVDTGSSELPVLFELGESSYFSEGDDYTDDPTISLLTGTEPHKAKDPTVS
# [3] = biological target: FAD-linked sulfhydryl oxidase ALR (Homo sapiens, UniProt P55789); test: inhibitors of human ALR sulfhydryl oxidase, dose response, biochemical, H2O2 detection, luminescence, cherry-pick (AID 493248)
# [4] = biological target: Dual specificity protein phosphatase 3 (Homo sapiens, UniProt P51452); test: VHR1 inhibitor Ki determination, SAR follow-up, biochemical, colorimetric (AID 2004)
# [5] = HIV-1 Env-mediated cell fusion inhibitors, dose response, CCR5-tropic Env (AID 2279); assay type: functional
# [6] = biological target: T2, Tyrosine-protein phosphatase non-receptor type 7 (Homo sapiens, UniProt P35236); assay type: functional
# T2 sequence (P35236 whole entry): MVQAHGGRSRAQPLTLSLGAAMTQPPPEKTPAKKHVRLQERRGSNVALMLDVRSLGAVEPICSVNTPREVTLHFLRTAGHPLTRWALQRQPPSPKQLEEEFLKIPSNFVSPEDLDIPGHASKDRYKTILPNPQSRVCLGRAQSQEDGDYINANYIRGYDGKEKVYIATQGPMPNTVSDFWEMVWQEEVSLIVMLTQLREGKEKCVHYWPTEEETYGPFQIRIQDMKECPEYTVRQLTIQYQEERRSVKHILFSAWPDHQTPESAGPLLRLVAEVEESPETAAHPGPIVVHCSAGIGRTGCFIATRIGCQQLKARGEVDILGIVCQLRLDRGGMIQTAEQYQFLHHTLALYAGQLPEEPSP
# [7] = biological target: Glyceraldehyde-3-phosphate dehydrogenase (Homo sapiens, UniProt P04406)
# [8] = biological target: Heat shock cognate 71 kDa protein (Homo sapiens, UniProt P11142); test: In Vitro Hsc70 Dose Response Fluorescence Polarization Assay. [Related pubchem assays: 1072 ]
# [9] = biological target: Heat shock 70 kDa protein 1A (Homo sapiens, UniProt P0DMV8); test: Hsp70 inhibitors, SAR follow-up, biochemical, fluorescence polarization (AID 1072)
# [10] = biological target: T3, Dual specificity protein phosphatase 6 (Rattus norvegicus, UniProt Q64346)
# T3 sequence (Q64346 whole entry): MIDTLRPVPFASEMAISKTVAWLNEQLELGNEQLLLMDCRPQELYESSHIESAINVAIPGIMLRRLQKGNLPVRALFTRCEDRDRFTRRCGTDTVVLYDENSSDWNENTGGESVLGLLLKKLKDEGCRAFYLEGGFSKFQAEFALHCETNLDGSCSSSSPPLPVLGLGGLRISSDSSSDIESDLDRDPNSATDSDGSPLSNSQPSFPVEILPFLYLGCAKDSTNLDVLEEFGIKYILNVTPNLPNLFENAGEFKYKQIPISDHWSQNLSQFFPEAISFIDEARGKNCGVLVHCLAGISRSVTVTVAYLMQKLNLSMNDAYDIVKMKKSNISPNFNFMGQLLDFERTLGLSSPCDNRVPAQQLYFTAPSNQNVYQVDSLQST
# [11] = biological target: T3, Dual specificity protein phosphatase 6; assay type: functional
# [12] = biological target: Luciferin 4-monooxygenase (Photinus pyralis, UniProt P08659); test: Counter Screen for Luciferase-based Assay Positives. [Related pubchem assays: 620, 618, 411 ]
# HT-1080 = test: cytotoxicity in HT1080 fibrosarcoma cells, cell-based, fluorescence readout (AID 620); assay type: functional; conditions: Homo sapiens
# cells = assay type: functional
# [13] = biological target: Mothers against decapentaplegic homolog 3 (Homo sapiens, UniProt P84022); test: Smad3 binding inhibitors, lysate ELISA, dose response, cell lysate, secondary confirmation, chemiluminescent ELISA, HEK293 lysate (AID 1058); assay type: functional
# Cytochrome P450 2C9 = Cytochrome P450 2C9 (Homo sapiens, UniProt P11712); conditions: Potency
# BJ [14] = test: cytotoxicity toward BJ-TERT fibroblasts, dose response, cell-based, RAS-independent, luminescence (AID 1933); assay type: functional; conditions: Homo sapiens
# [15] = Counterscreen for IDE inhibitors: Luminescence-based cell-based high throughput dose response assay to identify compounds that are cytotoxic to HEK cells. [Related pubchem assays: 434962 (Primary screen (IDE inhibitors in singlicate)), 449730 (Counterscreen (Cytotoxicity in triplicate)), 435028 (Confirmation (IDE inhibitors in triplicate)) …; assay type: functional; conditions: HEK293
# BJ [16] = test: cells; assay type: functional, cell-based; conditions: Homo sapiens
# [17] = biological target: T4, Kappa-type opioid receptor (Homo sapiens, UniProt P41145); assay type: functional
# Insulin-degrading enzyme = biological target: T5, Insulin-degrading enzyme (Homo sapiens, UniProt P14735); test: Dose Response: Fluorescence polarization-based cell-based high throughput dose response assay for inhibitors of insulin-degrading enzyme (IDE). [Related pubchem assays: 434962 (Primary screen (IDE inhibitors in singlicate)), 449730 (Counterscreen (Cytotoxicity in triplicate)), 435028 (Confirmation (IDE inhibitors in triplicate)), 434984 (Summary …; assay type: functional
# T5 sequence (P14735 whole entry): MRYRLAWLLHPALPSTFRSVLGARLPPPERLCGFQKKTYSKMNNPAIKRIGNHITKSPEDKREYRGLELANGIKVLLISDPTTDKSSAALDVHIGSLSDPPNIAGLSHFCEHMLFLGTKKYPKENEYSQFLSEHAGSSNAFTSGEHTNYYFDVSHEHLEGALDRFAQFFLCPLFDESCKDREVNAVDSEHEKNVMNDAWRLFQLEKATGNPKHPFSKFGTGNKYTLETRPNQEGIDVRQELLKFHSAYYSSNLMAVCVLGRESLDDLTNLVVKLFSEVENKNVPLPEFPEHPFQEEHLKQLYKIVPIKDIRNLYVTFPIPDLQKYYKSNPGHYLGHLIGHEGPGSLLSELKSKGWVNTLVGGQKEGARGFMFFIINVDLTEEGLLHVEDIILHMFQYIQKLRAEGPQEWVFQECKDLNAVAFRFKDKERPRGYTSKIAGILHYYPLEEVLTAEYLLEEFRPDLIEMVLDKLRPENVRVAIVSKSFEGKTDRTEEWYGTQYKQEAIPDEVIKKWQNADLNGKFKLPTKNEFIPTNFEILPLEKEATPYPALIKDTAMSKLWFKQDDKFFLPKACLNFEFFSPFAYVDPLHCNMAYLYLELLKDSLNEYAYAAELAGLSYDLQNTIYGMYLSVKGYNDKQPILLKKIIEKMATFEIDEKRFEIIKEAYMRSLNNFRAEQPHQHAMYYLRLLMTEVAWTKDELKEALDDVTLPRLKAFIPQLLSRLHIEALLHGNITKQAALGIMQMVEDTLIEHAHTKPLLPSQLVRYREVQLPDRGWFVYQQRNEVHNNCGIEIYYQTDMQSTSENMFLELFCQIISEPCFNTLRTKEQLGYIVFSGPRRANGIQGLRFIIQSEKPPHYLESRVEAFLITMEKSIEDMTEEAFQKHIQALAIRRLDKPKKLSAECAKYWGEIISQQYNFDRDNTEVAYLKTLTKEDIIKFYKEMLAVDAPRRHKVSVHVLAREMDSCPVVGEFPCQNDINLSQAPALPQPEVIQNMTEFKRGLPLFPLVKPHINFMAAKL
# Beta-galactosidase = Beta-galactosidase (Escherichia coli, UniProt Q8VNN2); assay type: functional
# BJ [18] = test: cytotoxicity toward BJ-TERT-LT-ST fibroblasts, dose response, cell-based, RAS-independent, luminescence (AID 1935); assay type: functional; conditions: Homo sapiens;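 note: BJ fibroblasts immortalized with TERT plus LT and ST oncogenes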
# [19] = biological target: T4, Kappa-type opioid receptor; assay type: functional; remark: listed apart in the source
# [20] = cytotoxicity toward DRD oncogenic fibroblasts, dose response, cell-based, non-viral oncogenic, luminescence (AID 1934); assay type: functional; conditions: Homo sapiens
# [21] = biological target: Melanin-concentrating hormone receptor 1 (Homo sapiens, UniProt Q99705); test: Late-stage fluorescence-based counterscreen for antagonists of the G-protein coupled receptor 7 (GPR7): cell-based dose response assay to identify antagonists of the melanin-concentrating hormone receptor 1 (MCHR1). [Related pubchem assays (depositor defined):AID1861, AID1880, AID1952, AID2148, AID2251, AID2257, AID485339]; assay type: functional;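 note: stimulated with 30 nM MCH peptide agonist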
# [22] = biological target: T6, Neuropeptide Y receptor type 1 (Homo sapiens, UniProt P25929); assay type: functional;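 note: HEK293 cells with a CNG channel challenged with NPY then isoproterenol; potency as antagonist that reverses NPY suppression of cAMP signal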
# T6 sequence (P25929 whole entry): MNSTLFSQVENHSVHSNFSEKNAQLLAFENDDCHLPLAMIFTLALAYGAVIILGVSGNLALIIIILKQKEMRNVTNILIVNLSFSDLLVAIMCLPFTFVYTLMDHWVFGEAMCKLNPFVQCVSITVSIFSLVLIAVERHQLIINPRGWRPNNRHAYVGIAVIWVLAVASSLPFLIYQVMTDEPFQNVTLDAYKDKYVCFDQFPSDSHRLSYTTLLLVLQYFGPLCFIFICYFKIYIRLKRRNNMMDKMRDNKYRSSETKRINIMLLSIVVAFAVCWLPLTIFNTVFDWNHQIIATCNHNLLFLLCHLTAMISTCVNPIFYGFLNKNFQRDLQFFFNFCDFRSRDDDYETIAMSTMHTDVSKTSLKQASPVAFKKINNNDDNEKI
# [23] = biological target: T7, Neuropeptide Y receptor type 2 (Homo sapiens, UniProt P49146); assay type: functional, cell-based;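 note: HEK293 cells expressing the receptor and a CNG channel; stimulus was NPY near EC95 followed by isoproterenol to raise cAMP; antagonist potency measured as restoring cAMP signal that NPY suppresses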
# T7 sequence (P49146 whole entry): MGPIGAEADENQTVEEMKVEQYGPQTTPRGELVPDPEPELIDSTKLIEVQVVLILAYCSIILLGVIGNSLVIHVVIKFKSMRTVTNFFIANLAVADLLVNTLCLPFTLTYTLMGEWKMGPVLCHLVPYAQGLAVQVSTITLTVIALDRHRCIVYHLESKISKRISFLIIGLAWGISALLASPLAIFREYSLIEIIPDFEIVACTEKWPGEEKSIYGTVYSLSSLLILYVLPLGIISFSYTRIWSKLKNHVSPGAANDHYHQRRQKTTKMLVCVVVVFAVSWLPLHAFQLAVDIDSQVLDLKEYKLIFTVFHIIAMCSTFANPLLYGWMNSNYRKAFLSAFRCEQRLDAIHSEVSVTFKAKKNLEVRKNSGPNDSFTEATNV
# T4 sequence (P41145 whole entry): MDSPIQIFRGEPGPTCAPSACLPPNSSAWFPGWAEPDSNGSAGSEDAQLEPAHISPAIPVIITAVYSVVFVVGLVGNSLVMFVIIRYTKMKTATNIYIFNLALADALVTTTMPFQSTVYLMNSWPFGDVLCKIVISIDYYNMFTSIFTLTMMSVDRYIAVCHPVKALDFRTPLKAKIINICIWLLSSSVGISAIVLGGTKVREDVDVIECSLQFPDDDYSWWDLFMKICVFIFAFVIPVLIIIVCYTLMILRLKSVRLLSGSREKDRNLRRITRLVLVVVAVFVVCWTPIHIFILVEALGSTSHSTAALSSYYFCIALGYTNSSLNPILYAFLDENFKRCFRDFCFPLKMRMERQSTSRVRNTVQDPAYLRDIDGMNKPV
# Chain of Dual specificity protein phosphatase 3 (P51452 whole entry, the tested form may be a part): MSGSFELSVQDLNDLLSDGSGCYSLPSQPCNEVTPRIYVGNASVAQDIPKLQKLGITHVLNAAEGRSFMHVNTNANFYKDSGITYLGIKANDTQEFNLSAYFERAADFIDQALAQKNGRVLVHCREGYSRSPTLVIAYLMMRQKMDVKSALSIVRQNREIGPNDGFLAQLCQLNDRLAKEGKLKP
# Chain of Beta-galactosidase (Q8VNN2 whole entry): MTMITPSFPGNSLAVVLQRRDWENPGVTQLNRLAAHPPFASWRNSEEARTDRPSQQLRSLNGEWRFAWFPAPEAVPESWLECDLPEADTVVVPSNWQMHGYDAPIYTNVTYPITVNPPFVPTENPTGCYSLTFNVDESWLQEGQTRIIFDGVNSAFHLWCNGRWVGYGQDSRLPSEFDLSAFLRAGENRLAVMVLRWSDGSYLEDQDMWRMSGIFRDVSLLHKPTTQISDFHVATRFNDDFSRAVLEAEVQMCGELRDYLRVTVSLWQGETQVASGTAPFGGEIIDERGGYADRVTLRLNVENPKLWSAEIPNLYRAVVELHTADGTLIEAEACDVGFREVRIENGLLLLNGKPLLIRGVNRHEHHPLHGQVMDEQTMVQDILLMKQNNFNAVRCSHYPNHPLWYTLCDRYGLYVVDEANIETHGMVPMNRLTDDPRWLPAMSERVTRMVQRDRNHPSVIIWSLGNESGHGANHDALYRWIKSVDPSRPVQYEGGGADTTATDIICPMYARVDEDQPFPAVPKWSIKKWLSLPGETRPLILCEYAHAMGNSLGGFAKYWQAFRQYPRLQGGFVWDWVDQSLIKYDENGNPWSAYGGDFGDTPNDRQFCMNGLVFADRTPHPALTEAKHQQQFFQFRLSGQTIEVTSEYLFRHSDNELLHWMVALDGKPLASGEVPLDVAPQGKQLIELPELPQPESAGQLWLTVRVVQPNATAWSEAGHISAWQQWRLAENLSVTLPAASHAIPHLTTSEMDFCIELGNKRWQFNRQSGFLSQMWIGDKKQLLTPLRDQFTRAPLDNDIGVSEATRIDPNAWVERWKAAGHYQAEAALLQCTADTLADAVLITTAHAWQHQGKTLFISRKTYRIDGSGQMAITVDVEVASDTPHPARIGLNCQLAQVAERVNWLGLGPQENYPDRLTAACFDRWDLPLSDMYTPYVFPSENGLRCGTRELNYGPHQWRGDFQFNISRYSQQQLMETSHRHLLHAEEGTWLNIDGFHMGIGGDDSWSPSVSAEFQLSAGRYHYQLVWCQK
# Chain of Luciferin 4-monooxygenase (P08659 whole entry): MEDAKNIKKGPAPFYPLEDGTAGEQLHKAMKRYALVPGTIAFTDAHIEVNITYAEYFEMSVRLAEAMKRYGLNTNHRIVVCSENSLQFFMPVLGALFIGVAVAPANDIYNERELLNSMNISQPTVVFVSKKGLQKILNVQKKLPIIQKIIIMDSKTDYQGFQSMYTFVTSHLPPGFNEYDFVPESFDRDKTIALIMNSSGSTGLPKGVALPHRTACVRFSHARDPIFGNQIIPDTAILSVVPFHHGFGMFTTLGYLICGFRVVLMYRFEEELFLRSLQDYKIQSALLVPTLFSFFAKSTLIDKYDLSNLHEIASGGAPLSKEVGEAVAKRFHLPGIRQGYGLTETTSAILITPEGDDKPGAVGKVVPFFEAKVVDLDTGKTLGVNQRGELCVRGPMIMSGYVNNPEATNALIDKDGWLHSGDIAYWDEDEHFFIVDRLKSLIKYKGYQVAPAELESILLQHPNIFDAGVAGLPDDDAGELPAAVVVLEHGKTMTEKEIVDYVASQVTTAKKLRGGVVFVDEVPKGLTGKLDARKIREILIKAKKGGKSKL
# Chain of FAD-linked sulfhydryl oxidase ALR (P55789 whole entry): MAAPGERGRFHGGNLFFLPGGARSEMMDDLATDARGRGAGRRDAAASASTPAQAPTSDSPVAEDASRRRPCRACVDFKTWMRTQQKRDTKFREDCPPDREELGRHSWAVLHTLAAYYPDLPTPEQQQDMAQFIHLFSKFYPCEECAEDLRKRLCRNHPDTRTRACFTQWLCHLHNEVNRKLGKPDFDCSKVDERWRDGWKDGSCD
# Chain of G2/mitotic-specific cyclin-B1 (P14635 whole entry): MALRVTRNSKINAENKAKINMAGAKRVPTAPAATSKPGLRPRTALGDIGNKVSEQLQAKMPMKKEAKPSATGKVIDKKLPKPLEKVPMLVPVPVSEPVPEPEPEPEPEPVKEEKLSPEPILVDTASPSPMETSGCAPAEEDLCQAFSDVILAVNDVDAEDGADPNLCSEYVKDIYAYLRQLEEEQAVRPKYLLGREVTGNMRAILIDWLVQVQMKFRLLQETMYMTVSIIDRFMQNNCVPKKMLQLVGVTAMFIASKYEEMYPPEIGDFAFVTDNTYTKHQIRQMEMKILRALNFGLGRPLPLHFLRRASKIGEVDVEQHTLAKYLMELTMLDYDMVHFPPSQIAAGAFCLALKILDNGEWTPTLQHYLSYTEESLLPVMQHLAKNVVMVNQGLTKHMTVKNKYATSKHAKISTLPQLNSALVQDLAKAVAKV
# Chain of Cytochrome P450 2C9 (P11712 whole entry): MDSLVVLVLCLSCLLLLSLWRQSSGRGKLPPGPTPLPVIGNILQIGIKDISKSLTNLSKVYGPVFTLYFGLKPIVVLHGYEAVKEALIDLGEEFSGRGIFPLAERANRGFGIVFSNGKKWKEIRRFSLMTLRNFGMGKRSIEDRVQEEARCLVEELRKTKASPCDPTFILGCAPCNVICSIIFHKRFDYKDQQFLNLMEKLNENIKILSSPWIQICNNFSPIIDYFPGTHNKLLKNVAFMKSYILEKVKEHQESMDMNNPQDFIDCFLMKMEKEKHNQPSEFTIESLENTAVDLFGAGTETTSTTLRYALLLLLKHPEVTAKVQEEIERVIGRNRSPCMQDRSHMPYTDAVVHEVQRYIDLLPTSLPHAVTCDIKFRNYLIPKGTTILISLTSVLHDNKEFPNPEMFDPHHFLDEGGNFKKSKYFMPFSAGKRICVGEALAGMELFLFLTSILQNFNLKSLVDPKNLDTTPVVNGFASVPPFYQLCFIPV
# Chain of Mothers against decapentaplegic homolog 3 (P84022 whole entry): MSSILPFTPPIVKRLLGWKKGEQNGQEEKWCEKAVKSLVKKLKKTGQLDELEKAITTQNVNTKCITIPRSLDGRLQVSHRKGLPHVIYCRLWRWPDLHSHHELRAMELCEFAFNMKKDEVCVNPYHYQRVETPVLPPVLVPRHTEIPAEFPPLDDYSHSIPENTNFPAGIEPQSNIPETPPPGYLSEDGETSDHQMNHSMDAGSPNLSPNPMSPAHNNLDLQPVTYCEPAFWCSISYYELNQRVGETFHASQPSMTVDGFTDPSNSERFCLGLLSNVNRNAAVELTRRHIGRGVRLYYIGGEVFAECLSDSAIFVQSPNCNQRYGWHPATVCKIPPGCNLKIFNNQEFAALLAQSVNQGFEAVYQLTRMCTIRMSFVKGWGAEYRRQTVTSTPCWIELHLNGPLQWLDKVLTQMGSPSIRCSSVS
# Chain of Glyceraldehyde-3-phosphate dehydrogenase (P04406 whole entry): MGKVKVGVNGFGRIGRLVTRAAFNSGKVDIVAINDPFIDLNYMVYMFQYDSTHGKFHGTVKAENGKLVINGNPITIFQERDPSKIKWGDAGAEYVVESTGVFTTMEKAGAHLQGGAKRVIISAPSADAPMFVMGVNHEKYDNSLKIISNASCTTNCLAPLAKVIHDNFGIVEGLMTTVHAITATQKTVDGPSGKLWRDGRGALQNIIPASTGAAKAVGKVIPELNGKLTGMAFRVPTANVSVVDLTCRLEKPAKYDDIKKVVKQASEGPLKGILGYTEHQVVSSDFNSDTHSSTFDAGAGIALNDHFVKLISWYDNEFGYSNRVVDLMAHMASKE
# Chain of Wee1-like protein kinase (P30291 whole entry): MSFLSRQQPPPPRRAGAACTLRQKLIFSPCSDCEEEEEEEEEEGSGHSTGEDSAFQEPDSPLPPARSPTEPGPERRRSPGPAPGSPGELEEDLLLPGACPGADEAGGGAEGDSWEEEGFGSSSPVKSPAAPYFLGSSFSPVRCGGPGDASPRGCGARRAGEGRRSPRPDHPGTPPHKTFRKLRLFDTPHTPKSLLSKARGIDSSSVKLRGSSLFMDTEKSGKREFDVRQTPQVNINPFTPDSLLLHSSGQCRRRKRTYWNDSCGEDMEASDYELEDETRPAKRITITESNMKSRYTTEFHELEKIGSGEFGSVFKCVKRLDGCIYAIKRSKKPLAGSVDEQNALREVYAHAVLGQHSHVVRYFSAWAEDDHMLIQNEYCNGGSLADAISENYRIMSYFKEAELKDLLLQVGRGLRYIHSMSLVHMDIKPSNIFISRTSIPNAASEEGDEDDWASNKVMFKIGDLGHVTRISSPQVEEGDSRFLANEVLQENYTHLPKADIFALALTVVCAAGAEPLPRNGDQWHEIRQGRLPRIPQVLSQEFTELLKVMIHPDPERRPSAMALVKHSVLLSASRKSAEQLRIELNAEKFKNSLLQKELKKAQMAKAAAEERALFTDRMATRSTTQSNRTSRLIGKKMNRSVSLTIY
compound,measurement,setting,value
Cc1ccc2[nH]c(NCc3ccccc3)nc2c1,EC50,[1],> 49.7 µM (not active)
same,EC50,Wee1-like protein kinase,> 49.7 µM (not active)
same,EC50,[2],> 260 µM (inactive)
same,AC50,[3],6.87 µM (active)
Cn1c(=O)c2c(nc(S)n2Cc2ccccc2Cl)n(C)c1=O,Ki,[4],25.4 µM (inactive)
Cc1ccc(-c2nc(SCC(=O)Nc3ccccc3OC(F)F)c3c(C)c(C(=O)O)sc3n2)cc1,IC50,[5],18.8 µM (active)
Cc1cc(C)c2c(c1)C1C=CCC1C(C(=O)O)N2 (centres undefined),IC50,[6],70.2 µM (active)
same,IC50,[7],> 100 µM (not active)
same,IC50,[8],> 100 µM (not active)
same,IC50,[9],24.7 µM (active)
same,IC50,[10],> 100 µM (inactive)
same,IC50,[11],> 100 µM (inactive)
Cc1ccc(C(=O)COC(=O)c2cccs2)cc1,EC50,[12],0.53 µM (active)
same,EC50,HT-1080,> 50 µM (not active)
same,IC50,cells,24.3 µM (active)
COc1cc(C(c2cc3c(cc2O)OCO3)N2CCCC2)cc(OC)c1OC (centres undefined),IC50,[13],> 40 µM (not active)
CCOC(=O)OCC1OC(C#Cc2ccccc2)C=CC1OC(=O)OCC (centres undefined),AC50,Cytochrome P450 2C9,0.0794 µM (inconclusive)
CCN1C(=O)/C(=C/C=C2/Sc3ccccc3N2CCO)SC1=S,EC50,BJ [14],28.7 µM (active)
same,IC50,[15],12.1 µM (not active)
same,EC50,BJ [16],30.4 µM (active)
same,IC50,[17],13.2 µM (active)
same,IC50,Insulin-degrading enzyme,> 56 µM (not active)
same,EC50,Beta-galactosidase,16.7 µM (active)
same,EC50,BJ [18],> 150 µM (not active)
same,IC50,[19],27.6 µM
same,EC50,[20],50.2 µM (active)
COc1ccc(Oc2c(Cl)cnn(-c3cccc(C)c3C)c2=O)cc1,IC50,[21],12.5 µM (inactive)
OC[C@H]1O[C@@H](n2cnc3c(Nc4ccccc4)ncnc32)[C@H](O)[C@@H]1O [N6-PHENYLADENOSINE],IC50,[22],7.83 µM (active)
same,IC50,[23],4.73 µM (active)
